Two molecules from patent US11786484B2, “Xanthohumol solubilizate” (Aquanova AG, priority 2018, dated 2023) can be followed below.

Test [1] has as its system thiobarbituric acid reactive substances TBARS. Description: Adjuvant induced arthritis in rats: TBARS in serum. In kind it is in vivo, Wistar rats. To be noted: serum of arthritic rats (n=8), once daily for 21 days, mean ± SEM. Here is the method: (§1) Anti-inflammatory markers and antioxidant capacity were determined. Female Wistar rats with a body weight between 150 and 200 g were exposed to adjuvant induced arthritis according to Pearson et al. (1956). At day 0, the animals were administered 0.1 ml of Freund's Adjuvant (FCA) in the right hind paw, by subplantar injection. The animals were randomly divided into 12 groups of 8 animals each.
(§2) All extracts or solubilizates were administered orally once daily from day 0 through day 21 following the vaccination with the adjuvant. After day 21, the animals were killed and serum samples were prepared and stored at −80° C. Measurements were made of myeloperoxidase (MPO), C-reactive protein (CRP), total antioxidant capacity (TAC), and thiobarbituratic acid reactive substances (TBARS).
(§3) Oxidative stress is one of the major factors contributing to joint destruction in rheumatoid arthritis (RA). An increase in the production of reactive oxygen species (ROS) leads to a reduced supply of endogenous antioxidants and ultimately results in the destruction of cells. The neutrophil granulocytes released in the rheumatoid joint produce free oxygen radicals which cause increased formation of lipid peroxides manifesting in an increase in serum TBARS. […]

The test system of test [2] is total antioxidant capacity (TAC). Put plainly: Adjuvant induced arthritis in rats: total antioxidant capacity (TAC) in serum. Type of test: in vivo, Wistar rats. The note with it: serum of arthritic rats (n=8), once daily for 21 days, mean ± SEM. The procedure: as §1, §2, §3
In test [3] the test system is WTD fed mice. Description: Liver weight, hepatic triglyceride level and histology (steatosis) in WTD mice. In kind it is in vivo, mice of the strain C57BL/6. The note with it: 2.5 mg/kg daily, 8 weeks. Here is the method: (§4) The medical faculty of Friedrich-Alexander University Erlangen Nürnberg (FAU) conducted studies on the effects of xanthohumol on body weight. A dose of 2.5 mg/kg body weight of xanthohumol was administered daily. For this purpose, a solubilizate of the present Applicant was used. It was prepared from 100 g “Xantho-Flav Pure”, 150 g of 96% ethanol, and 750 g of polysorbate 80. For adjusting the concentration to 0.375 mg/ml, the solubilizate was diluted with double-distilled water (“ddH2O”). The corresponding data are marked by “s-XN” in the accompanying figures.
(§5) For comparison, similar experiments were conducted with the same dose of native xanthohumol. For dissolving the native xanthohumol, an aqueous solution of methylhydroxypropyl cellulose (MHPC, 0.2%, Methocel E4M Premium CR, Hypromellose 2910 USP, Fragron Inc., Minnesota, USA) was used. The corresponding data are marked by “n-XN”. […]
To quantify liver lipids, the latter were extracted and the amount of triglycerides (“hepatic triglyceride level”) was determined using a “GPO-triglyceride kit” (Sigma, Deisenhofen, Germany), as described in Wobser et al.: “Lipid accumulation in hepatocytes induces fibrogenic activation of hepatic stellate cells”, Cell Res 2009; 19:996-1005. […]

Test [4] concerns alpha-smooth muscle actin (α-SMA). Put plainly: Hepatic expression of alpha-smooth muscle actin in WTD mice (qPCR, immunohistochemistry). In kind it is in vivo, mice of the strain C57BL/6. To be noted: 2.5 mg/kg daily, 8 weeks. From the text: (§6) Male mice of the strain C57BL/6 at an age of 8 weeks either received usual diet or were fed according to the “Western type diet” consisting of 15% pork lard, 15% beef tallow, 4% palmitic acid, 4% stearic acid, 0.2% cholesterol, and 30% sucrose. The control group (CTRL), which received the usual diet, was given an aqueous solution of methylhydroxypropyl cellulose (MHPC, 0.2%, Methocel™ E4M prem) (“vehicle” VH) as a therapy, as was the case with the “Western type diet” group (“WTD”).
(§7) Other groups received the xanthohumol solubilizate (“s-XN”) of the present Applicant or native xanthohumol (“n-XN”) in addition to the WTD. The therapy was conducted over 8 weeks.
(§8) RNA isolation from liver tissue, reverse transcription and quantitative real-time polymerase chain reaction (PCR) analysis were carried out using the “LightCycler” technology (Roche) and specific tests for primers, as described in Hellebrand et al.: “Promoter hypermethylation is causing functional relevant downregulation of methylthioadenosine phosphorylase (MTAP) expression in hepatocellular carcinoma”, Carcinogenesis 2006; 27:64-72.
The α-SMA protein is an established marker of activated hepatic stellate cells (HSC) which trigger liver cirrhosis. An immunohistochemical analysis of the α-SMA protein confirmed that WTD causes significant activation of HSC (FIG. 4B).

The next test relates to C-reactive protein (CRP). Put plainly: Adjuvant induced arthritis in rats: serum CRP. Type of test: in vivo, Wistar rats. To be noted: arthritic rats, 5 mg/kg orally once daily day 0 through day 21; diclofenac 3 mg/kg as reference. The procedure:
as §1, §2

For the next test, the system named is type 1 collagen (COL1A1). Description: Hepatic expression of type 1 collagen in WTD mice. The note with it: 2.5 mg/kg daily, 8 weeks. Type of test: in vivo, mice of the strain C57BL/6.
From the text: as §6, §7, §8
Type 1 collagen (COL1A1) is the most important extracellular matrix protein in liver fibrosis, both quantitatively and qualitatively.

For test [5], the system named is WTD fed mice. Description: Intraperitoneal glucose tolerance test (ipGTT) in WTD mice. In kind it is in vivo, mice of the strain C57BL/6. To be noted: 2.5 mg/kg daily, after seven weeks. The procedure: as §4, §5
After seven weeks of administration of the solubilizate or of native xanthohumol, an intraperitoneal glucose tolerance test (ipGTT) was carried out. […] The concentration of glucose in the blood was measured in samples that were taken from the tail vein prior to glucose administration (fasting glucose) as well as 30, 60, 80, and 120 minutes thereafter. […]

The test system of the next test is myeloperoxidase (MPO). Description: Adjuvant induced arthritis in rats: serum MPO. Type of test: in vivo, Wistar rats. The note with it: arthritic rats, 5 mg/kg orally once daily day 0 through day 21; diclofenac 3 mg/kg as reference. The procedure: as §1, §2

In the case of `O=C(O)Cc1ccccc1Nc1c(Cl)cccc1Cl` [Diclofenac, diclofenac], in test [1], the TBARS is 7.93 ± 0.84 nmol/L. In addition, in test [2], the TAC worked out at 82.08 ± 2.96 nmol/µL.
In the case of `COc1cc(O)c(CC=C(C)C)c(O)c1C(=O)/C=C/c1ccc(O)cc1` [native xanthohumol, xanthohumol], the “steatosis (liver appearance, histological examinations)” value in the test on WTD fed mice [3] is “accumulation of fat in the liver (steatosis)”. The “WTD-induced expression of α-SMA” value in test [4] was “hardly any effects”. The “effect on CRP serum level, in words” value in the test with C-reactive protein (CRP) is on record as “effect comparable to that of diclofenac”. Moreover, the TBARS in test [1] was determined as 11.42 ± 1.16 nmol/L. The “WTD-induced expression of type 1 collagen” value in the test on type 1 collagen (COL1A1) is reported as “hardly any effects”. The fasting glucose values result in the test with WTD fed mice [5] (12 hours of fasting) is “did not bring about this effect”. For the same molecule, in the test on WTD fed mice [5] (ipGTT 3 mg glucose per gram body weight), the glucose tolerance result was “did not bring about this effect”. Besides, in the test with myeloperoxidase (MPO), the “effect on the serum concentration of MPO, in words” value is reported as “only a slight effect”. The TAC in test [2] worked out at 63.71 ± 1.02 nmol/µL.
